From ChEMBL document CHEMBL5291721, “A preclinical secondary pharmacology resource illuminates target-adverse drug reaction associations of marketed drugs” (Nat Commun, 2023)

Experiments:
Adenosine receptor A3 [1] = biological target: T1, Adenosine receptor A3 (Homo sapiens, UniProt P0DMS8)
T1 sequence (P0DMS8 whole entry): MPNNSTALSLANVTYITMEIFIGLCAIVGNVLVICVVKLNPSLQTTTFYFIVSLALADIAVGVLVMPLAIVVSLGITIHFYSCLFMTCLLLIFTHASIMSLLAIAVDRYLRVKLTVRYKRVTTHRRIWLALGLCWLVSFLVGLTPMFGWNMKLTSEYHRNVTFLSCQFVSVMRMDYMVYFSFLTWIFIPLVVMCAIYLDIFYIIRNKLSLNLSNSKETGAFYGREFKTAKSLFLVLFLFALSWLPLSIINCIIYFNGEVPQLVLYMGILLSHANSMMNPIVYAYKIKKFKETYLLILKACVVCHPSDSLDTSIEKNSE

[2] = biological target: Voltage-gated inwardly rectifying potassium channel KCNH2 (Homo sapiens, UniProt Q12809); assay type: functional; settings: read-out: AC50
Voltage-gated inwardly rectifying potassium channel KCNH2, sequence (Q12809 whole entry): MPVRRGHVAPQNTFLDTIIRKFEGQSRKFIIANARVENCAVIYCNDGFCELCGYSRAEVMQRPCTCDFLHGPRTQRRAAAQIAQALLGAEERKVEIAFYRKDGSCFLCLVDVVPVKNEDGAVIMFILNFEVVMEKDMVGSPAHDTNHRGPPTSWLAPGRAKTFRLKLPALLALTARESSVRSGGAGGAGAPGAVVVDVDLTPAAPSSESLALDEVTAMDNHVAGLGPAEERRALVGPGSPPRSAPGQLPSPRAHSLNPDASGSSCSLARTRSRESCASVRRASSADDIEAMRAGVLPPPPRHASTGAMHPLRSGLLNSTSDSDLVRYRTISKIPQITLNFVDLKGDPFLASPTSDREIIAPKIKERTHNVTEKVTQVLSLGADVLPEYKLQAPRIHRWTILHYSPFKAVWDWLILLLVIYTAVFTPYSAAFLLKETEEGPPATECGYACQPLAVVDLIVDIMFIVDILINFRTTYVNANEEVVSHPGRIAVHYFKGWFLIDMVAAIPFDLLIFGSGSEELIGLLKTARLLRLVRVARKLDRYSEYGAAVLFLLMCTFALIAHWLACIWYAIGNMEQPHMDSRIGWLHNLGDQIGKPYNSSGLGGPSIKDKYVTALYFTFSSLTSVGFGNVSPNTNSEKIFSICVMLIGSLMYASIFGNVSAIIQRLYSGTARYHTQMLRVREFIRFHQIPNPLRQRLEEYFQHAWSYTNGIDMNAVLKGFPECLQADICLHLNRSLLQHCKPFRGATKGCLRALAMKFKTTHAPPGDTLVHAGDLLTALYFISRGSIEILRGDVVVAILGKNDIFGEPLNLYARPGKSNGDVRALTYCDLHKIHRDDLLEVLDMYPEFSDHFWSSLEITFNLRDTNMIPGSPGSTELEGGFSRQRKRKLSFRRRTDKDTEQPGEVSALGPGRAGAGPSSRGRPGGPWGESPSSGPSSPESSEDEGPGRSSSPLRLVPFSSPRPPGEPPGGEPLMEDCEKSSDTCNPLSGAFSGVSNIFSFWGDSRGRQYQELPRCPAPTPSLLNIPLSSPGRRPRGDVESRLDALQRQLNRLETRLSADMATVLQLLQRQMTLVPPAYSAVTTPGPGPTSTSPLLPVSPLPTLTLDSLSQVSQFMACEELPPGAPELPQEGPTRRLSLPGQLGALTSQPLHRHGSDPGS

[3] = biological target: T2, Alpha-1A adrenergic receptor (Homo sapiens, UniProt P35348); assay type: functional, cell-based
T2 sequence (P35348 whole entry): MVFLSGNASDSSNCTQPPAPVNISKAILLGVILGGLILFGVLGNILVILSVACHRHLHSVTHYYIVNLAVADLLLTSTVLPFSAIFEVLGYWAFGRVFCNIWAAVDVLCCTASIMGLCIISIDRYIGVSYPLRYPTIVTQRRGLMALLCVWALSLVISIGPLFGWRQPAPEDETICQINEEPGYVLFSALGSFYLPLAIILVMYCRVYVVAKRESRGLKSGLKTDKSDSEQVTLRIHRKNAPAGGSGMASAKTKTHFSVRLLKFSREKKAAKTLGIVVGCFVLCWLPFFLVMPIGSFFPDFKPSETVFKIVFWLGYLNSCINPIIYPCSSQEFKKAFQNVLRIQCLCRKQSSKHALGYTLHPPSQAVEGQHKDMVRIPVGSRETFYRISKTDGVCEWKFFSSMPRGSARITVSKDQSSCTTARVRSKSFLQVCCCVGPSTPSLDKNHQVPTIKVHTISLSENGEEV

Progesterone receptor = biological target: T3, Progesterone receptor (Homo sapiens, UniProt P06401)
T3 sequence (P06401 whole entry): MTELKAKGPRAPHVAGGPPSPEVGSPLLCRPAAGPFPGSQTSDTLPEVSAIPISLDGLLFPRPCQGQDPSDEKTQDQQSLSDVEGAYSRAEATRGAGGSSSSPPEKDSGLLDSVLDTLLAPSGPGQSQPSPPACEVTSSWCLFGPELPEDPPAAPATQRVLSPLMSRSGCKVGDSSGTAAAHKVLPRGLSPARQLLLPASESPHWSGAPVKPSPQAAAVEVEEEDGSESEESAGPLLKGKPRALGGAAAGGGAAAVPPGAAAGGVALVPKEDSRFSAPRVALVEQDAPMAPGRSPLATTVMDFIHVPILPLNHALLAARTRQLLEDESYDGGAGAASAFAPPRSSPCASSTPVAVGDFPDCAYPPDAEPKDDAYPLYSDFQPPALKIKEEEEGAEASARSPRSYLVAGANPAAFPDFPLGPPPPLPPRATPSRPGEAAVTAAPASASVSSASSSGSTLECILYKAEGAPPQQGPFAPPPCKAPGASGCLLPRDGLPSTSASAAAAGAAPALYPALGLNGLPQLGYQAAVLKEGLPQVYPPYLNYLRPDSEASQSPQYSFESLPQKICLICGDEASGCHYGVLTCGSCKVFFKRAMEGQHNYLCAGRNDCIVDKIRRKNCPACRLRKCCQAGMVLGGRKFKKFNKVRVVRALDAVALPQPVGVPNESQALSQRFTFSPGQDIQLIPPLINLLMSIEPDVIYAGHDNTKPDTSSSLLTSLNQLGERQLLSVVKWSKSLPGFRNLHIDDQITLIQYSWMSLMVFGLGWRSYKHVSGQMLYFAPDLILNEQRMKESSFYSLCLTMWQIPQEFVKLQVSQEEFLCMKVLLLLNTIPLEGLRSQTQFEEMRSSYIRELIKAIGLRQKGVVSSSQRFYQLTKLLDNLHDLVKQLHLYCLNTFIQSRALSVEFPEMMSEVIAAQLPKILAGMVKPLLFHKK

[4] = biological target: 5-hydroxytryptamine receptor 2B (Homo sapiens, UniProt P41595); assay type: functional, cell-based
[5] = biological target: 3',5'-cyclic-AMP phosphodiesterase 4A (Homo sapiens, UniProt P27815); assay type: functional
3',5'-cyclic-AMP phosphodiesterase 4A, sequence (P27815 whole entry): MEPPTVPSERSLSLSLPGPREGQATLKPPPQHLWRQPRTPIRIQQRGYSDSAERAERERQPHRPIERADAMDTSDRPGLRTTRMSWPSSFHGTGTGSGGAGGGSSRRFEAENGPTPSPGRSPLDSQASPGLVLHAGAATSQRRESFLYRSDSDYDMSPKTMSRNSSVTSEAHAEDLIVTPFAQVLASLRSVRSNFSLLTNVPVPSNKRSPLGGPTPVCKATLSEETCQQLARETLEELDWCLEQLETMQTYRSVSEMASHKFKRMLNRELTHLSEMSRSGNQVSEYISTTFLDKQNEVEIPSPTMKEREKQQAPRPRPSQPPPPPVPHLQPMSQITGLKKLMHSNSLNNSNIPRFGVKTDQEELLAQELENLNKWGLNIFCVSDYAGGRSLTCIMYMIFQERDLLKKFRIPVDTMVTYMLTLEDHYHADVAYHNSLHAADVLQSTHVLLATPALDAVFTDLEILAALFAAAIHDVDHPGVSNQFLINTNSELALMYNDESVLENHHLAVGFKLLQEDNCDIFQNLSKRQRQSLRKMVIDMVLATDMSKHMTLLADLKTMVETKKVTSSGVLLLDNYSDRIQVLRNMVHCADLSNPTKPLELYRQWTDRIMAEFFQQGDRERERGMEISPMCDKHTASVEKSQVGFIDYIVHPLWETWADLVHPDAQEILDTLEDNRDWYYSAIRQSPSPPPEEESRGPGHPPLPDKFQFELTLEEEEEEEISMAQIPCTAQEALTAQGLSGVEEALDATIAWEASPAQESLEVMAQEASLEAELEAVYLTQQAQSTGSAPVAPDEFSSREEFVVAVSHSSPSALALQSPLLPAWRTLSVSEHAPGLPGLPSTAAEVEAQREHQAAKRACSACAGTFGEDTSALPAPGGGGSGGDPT

[6] = biological target: Prostaglandin G/H synthase 1 (Homo sapiens, UniProt P23219); assay type: functional
Prostaglandin G/H synthase 1, sequence (P23219 whole entry): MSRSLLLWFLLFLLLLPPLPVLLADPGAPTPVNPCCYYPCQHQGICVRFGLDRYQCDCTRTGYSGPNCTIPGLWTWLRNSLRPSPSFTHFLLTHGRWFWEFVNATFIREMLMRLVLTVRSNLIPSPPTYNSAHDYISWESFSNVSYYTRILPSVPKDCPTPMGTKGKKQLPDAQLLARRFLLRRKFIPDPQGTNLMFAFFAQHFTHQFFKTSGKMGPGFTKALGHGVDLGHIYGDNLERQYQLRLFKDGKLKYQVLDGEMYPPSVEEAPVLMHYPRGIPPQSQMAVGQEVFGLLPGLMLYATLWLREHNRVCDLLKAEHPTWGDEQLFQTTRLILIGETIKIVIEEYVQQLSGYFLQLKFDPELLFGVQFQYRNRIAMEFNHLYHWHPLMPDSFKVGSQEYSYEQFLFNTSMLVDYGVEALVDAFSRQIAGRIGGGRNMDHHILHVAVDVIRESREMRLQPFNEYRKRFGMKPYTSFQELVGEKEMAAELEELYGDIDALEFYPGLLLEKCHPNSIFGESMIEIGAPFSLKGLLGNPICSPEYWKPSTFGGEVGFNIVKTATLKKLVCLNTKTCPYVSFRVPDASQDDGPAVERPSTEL

[7] = biological target: cGMP-inhibited 3',5'-cyclic phosphodiesterase 3A (Homo sapiens, UniProt Q14432); assay type: functional
cGMP-inhibited 3',5'-cyclic phosphodiesterase 3A, sequence (Q14432 whole entry): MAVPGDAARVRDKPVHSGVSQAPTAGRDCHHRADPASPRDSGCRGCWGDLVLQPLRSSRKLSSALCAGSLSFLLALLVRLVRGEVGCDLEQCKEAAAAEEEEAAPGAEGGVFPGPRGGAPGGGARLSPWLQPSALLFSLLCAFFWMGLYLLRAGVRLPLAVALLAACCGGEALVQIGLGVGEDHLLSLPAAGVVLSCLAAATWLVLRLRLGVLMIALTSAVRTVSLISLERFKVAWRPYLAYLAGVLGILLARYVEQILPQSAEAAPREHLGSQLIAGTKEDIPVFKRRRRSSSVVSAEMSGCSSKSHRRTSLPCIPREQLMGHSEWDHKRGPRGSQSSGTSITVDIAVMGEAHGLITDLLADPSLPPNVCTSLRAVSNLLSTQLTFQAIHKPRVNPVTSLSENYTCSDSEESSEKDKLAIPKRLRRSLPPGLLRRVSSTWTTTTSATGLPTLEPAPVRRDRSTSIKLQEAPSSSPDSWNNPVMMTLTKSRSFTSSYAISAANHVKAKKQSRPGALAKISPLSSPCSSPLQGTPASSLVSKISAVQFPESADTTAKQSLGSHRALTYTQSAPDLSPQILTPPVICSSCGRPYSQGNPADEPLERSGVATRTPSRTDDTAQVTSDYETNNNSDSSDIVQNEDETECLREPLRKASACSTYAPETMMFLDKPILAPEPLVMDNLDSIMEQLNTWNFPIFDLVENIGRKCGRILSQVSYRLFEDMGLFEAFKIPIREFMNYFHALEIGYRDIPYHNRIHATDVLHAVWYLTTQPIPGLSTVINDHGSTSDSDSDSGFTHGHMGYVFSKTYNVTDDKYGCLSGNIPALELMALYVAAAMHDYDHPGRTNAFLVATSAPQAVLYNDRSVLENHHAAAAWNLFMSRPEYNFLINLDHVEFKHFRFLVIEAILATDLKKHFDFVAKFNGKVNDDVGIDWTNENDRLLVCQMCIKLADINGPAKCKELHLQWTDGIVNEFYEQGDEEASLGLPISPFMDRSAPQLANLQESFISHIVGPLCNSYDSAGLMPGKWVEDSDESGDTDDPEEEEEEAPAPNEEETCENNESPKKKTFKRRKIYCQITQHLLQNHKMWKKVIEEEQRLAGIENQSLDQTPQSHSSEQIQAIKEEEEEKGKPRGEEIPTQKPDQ

[8] = biological target: Sodium-dependent dopamine transporter (Homo sapiens, UniProt Q01959)
Sodium-dependent dopamine transporter, sequence (Q01959 whole entry): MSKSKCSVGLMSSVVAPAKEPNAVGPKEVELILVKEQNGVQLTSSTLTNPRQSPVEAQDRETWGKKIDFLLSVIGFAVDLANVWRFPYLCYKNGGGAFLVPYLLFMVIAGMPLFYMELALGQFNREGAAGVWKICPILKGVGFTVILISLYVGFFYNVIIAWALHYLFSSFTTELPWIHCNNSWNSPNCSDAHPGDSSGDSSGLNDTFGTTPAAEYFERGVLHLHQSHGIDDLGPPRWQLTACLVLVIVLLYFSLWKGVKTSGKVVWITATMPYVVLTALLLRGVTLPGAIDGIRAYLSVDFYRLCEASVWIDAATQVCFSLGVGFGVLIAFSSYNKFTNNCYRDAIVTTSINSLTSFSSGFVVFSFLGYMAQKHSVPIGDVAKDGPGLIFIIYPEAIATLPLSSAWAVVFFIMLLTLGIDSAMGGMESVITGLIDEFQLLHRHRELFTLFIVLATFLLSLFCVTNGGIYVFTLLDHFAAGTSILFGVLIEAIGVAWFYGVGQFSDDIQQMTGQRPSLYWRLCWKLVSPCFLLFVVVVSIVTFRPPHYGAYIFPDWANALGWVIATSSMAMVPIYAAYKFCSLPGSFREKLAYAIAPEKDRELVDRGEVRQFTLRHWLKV

[9] = biological target: T2, Alpha-1A adrenergic receptor; assay type: functional, cell-based; remark: listed apart in the source
[10] = biological target: Sodium-dependent serotonin transporter (Homo sapiens, UniProt P31645)
Sodium-dependent serotonin transporter, sequence (P31645 whole entry): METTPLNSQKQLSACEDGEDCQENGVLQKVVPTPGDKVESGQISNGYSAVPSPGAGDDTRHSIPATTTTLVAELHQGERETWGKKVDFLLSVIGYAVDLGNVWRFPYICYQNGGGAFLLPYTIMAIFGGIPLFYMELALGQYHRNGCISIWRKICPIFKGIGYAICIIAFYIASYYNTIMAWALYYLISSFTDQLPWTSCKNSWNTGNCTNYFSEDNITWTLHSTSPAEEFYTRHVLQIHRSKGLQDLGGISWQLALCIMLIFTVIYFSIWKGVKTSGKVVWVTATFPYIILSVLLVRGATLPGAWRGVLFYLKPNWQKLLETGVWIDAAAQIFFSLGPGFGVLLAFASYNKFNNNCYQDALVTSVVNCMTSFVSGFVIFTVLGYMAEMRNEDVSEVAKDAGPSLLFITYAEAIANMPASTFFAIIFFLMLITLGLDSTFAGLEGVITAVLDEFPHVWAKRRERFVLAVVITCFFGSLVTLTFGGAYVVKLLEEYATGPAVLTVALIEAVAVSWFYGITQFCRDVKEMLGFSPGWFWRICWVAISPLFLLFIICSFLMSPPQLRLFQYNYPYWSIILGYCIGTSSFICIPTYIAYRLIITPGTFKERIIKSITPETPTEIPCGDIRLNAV

Estrogen receptor = biological target: T4, Estrogen receptor (Homo sapiens, UniProt P03372)
T4 sequence (P03372 whole entry): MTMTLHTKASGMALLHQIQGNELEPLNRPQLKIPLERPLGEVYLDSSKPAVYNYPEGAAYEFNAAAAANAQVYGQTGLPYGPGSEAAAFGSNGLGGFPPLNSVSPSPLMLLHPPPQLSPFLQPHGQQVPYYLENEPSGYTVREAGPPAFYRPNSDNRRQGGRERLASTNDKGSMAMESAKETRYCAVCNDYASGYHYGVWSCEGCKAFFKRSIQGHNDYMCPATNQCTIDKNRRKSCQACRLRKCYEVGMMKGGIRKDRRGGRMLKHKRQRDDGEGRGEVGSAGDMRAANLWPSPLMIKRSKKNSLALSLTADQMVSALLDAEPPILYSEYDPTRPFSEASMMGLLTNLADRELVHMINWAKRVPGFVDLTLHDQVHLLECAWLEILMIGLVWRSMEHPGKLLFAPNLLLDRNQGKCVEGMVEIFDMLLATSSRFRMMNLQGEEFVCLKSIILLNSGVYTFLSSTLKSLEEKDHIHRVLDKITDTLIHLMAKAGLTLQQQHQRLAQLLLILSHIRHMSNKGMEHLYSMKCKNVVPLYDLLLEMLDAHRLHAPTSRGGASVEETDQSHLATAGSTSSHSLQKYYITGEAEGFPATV

[11] = biological target: Gamma-aminobutyric acid receptor subunit alpha-1 (Rattus norvegicus, UniProt P62813)
Adenosine receptor A3 [12] = biological target: T1, Adenosine receptor A3; remark: listed apart in the source
Also: assay procedure not described here.

| SMILES | AC50 (Adenosine receptor A3 [1]) | AC50 [2] | AC50 [3] | AC50 (Progesterone receptor) | AC50 [4] | AC50 [5] | AC50 [6] | AC50 [7] | AC50 [8] | AC50 [9] | AC50 [10] | AC50 (Estrogen receptor) | AC50 [11] | AC50 (Adenosine receptor A3 [12]) |
| --- | --- | --- | --- | --- | --- | --- | --- | --- | --- | --- | --- | --- | --- | --- |
| CC(C1=C(CCN(C)C)Cc2ccccc21)c1ccccn1 (configuration not stated) | > 30 µM | 2.7 µM | 8.8 µM | > 30 µM | > 30 µM | > 30 µM | > 30 µM | > 30 µM | > 30 µM | > 30 µM | 13.7 µM |  |  |  |
| C[C@@H](O)[C@H]1C(=O)N2C(C(=O)[O-])=C(SC3Cn4cnc[n+]4C3)[C@H](C)[C@H]12 (some centres not stated) [BIAPENEM] |  | > 30 µM | > 30 µM | > 30 µM | > 30 µM | > 30 µM | > 30 µM | > 30 µM | > 30 µM | > 30 µM | > 30 µM |  |  |  |
| CCn1cc(C(=O)O)c(=O)c2cc(F)c(N3CCNCC3)nc21 [ENOXACIN] | > 30 µM | > 30 µM | > 30 µM | > 30 µM | > 30 µM | > 30 µM | > 30 µM | > 30 µM | > 30 µM | > 30 µM |  | > 30 µM | > 10 µM | > 30 µM |
| CC(=O)OCC[N+](C)(C)C [ACETYLCHOLINE] |  | > 30 µM | > 30 µM | > 30 µM | > 30 µM | > 30 µM | > 30 µM | > 30 µM | > 30 µM | > 30 µM | > 30 µM |  | > 10 µM | > 30 µM |
| Oc1c(I)cc(Cl)c2cccnc12 [CLIOQUINOL] |  | > 30 µM |  | > 30 µM | > 30 µM | > 30 µM | > 30 µM | > 30 µM | > 30 µM |  | > 30 µM |  | > 30 µM |  |
| C[C@H](N)C(=O)O [ALANINE] | > 30 µM | > 30 µM | > 30 µM | > 30 µM | > 30 µM | > 30 µM | > 30 µM | > 30 µM | > 30 µM | > 30 µM | > 30 µM |  |  |  |
| CCCCOc1ccc(CC(=O)NO)cc1 [BUFEXAMAC] | > 30 µM | > 30 µM | > 30 µM | > 30 µM | > 30 µM | 0.53 µM | > 30 µM | > 30 µM | > 30 µM | > 30 µM | > 30 µM |  |  |  |
| CC(N)CCCC(C)(C)O (configuration not stated) [HEPTAMINOL] | > 30 µM |  | > 30 µM | > 30 µM | > 30 µM | > 30 µM | > 30 µM | > 30 µM | > 30 µM | > 30 µM | > 30 µM |  |  |  |
| CC[C@H]1OC(=O)[C@H](C)[C@@H](O[C@H]2C[C@@](C)(OC)[C@@H](O)[C@H](C)O2)[C@H](C)[C@@H](O[C@@H]2O[C@H](C)C[C@H](N(C)C)[C@H]2O)[C@](C)(OC)C[C@@H](C)C(=O)[C@H](C)[C@@H](O)[C@]1(C)O [CLARITHROMYCIN] | > 30 µM | > 30 µM | > 30 µM | > 30 µM | > 30 µM | > 30 µM | > 30 µM | > 30 µM | > 30 µM | > 30 µM |  | > 30 µM |  | > 30 µM |
| CC[N+](C)(CC)CCOC(=O)C1c2ccccc2Oc2ccccc21 [METHANTHELINE] | > 30 µM | 11 µM | > 30 µM | > 30 µM | > 30 µM | > 30 µM | > 30 µM | > 30 µM | > 30 µM | > 30 µM | > 30 µM |  |  |  |
| OC(CCCN1CCCCC1)(c1ccccc1)c1ccccc1 [DIPHENIDOL] | > 30 µM | 16 µM | > 30 µM | > 30 µM | > 30 µM | > 30 µM | > 30 µM | > 30 µM | > 30 µM | > 30 µM |  | > 30 µM |  |  |
| CNC(=O)Oc1ccc2c(c1)[C@]1(C)CCN(C)[C@@H]1N2C [PHYSOSTIGMINE] | > 30 µM | > 30 µM | > 30 µM | > 30 µM | > 30 µM | > 30 µM | > 10 µM | > 30 µM | > 30 µM | > 30 µM |  | > 30 µM | > 30 µM | > 30 µM |
| CCCCC/C=C\C/C=C\C/C=C\CCCCC(=O)O [GAMOLENIC ACID] | > 30 µM | > 30 µM | > 30 µM | > 30 µM | > 30 µM | > 30 µM | 4.91 µM | > 30 µM | > 30 µM | > 30 µM | > 30 µM |  |  |  |
| O=C1c2c(O)cccc2Cc2cccc(O)c21 [ANTHRALIN] | > 3 µM | > 1 µM | > 30 µM | > 30 µM | > 30 µM | 0.262 µM | 0.875 µM | > 30 µM | > 3 µM | > 30 µM | > 3 µM |  |  |  |
| C[C@@H]1C[C@H]2[C@@H]3CCC4=CC(=O)C=C[C@]4(C)C3=CC[C@]2(C)[C@H]1C(=O)CN1CCN(c2cc(N3CCCC3)nc(N3CCCC3)n2)CC1 [TIRILAZAD] | 4.07 µM | 1.9 µM | > 30 µM | 6.37 µM | > 30 µM | 19.4 µM | 3.8 µM | > 30 µM | > 30 µM | > 30 µM |  | > 30 µM |  |  |
